In PubChem BioAssay AID2060904 (Molecular Pharmacology Branch, DTP, NCI, 2025):
pIC50: −log10 of the molar value.

Test system: 349418-098-R-PDC complex spheroid viability
Assay: Anticancer human tumor 349418-098-R-PDC patient-derived lung adenocarcinoma cell line growth inhibition [RAS]
Settings: for pIC50: curve of first compound; for viability, T/C: stronger effect = lower value
Procedure, shortened: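 Multi-cell-type spheroids: tumor cells plus HUVEC endothelial cells and mesenchymal stem cells. RAS-pathway inhibitors were combined with targeted agents, each dosed in half-log steps down from clinical Cmax, or from 10 microM when Cmax was unknown.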

[1] = second compound 0.000949 µM, first compound 0.0316 µM
[2] = second compound 0.000949 µM, first compound 0.1 µM
[3] = second compound 0.000949 µM, first compound 0.316 µM
[4] = second compound 0.000949 µM, first compound 1 µM
[5] = second compound 0.000949 µM, first compound 3.16 µM
[6] = second compound 0.000949 µM, first compound 10 µM
[7] = second compound 0.003 µM, first compound 0.0316 µM
[8] = second compound 0.003 µM, first compound 0.1 µM
[9] = second compound 0.003 µM, first compound 0.316 µM
[10] = second compound 0.003 µM, first compound 1 µM
[11] = second compound 0.003 µM, first compound 3.16 µM
[12] = second compound 0.003 µM, first compound 10 µM
[13] = second compound 0.00949 µM, first compound 0.0316 µM
[14] = second compound 0.00949 µM, first compound 0.1 µM
[15] = second compound 0.00949 µM, first compound 0.316 µM
[16] = second compound 0.00949 µM, first compound 1 µM
[17] = second compound 0.00949 µM, first compound 3.16 µM
[18] = second compound 0.00949 µM, first compound 10 µM
[19] = second compound 0.03 µM, first compound 0.0316 µM
[20] = second compound 0.03 µM, first compound 0.1 µM
[21] = second compound 0.03 µM, first compound 0.316 µM
[22] = second compound 0.03 µM, first compound 1 µM
[23] = second compound 0.03 µM, first compound 3.16 µM
[24] = second compound 0.03 µM, first compound 10 µM
[25] = second compound 0.0949 µM, first compound 0.0316 µM
[26] = second compound 0.0949 µM, first compound 0.1 µM
[27] = second compound 0.0949 µM, first compound 0.316 µM
[28] = second compound 0.0949 µM, first compound 1 µM
[29] = second compound 0.0949 µM, first compound 3.16 µM
[30] = second compound 0.0949 µM, first compound 10 µM
[31] = second compound 0.3 µM, first compound 0.0316 µM
[32] = second compound 0.3 µM, first compound 0.1 µM
[33] = second compound 0.3 µM, first compound 0.316 µM
[34] = second compound 0.3 µM, first compound 1 µM
[35] = second compound 0.3 µM, first compound 3.16 µM
[36] = second compound 0.3 µM, first compound 10 µM
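Note: spheroids exposed to compound for seven days before viability readout.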

CC1(O)CCCC1n1c(=O)c(C(F)F)cc2cnc(NC3CCN(S(C)(=O)=O)CC3)nc21 (stereo unspecified) + CCn1c(-c2cc(N3CCN(C)CC3)cnc2C(C)OC)c2c3cc(ccc31)-c1csc(n1)CC(NC(=O)C1CC1C)C(=O)N1CCCC(N1)C(=O)OCC(C)(C)C2
pIC50 (second compound 0.000949 µM): 7.20 | pIC50 (second compound 0.003 µM): 7.14 | pIC50 (second compound 0.00949 µM): 7.24 | pIC50 (second compound 0.03 µM): 7.07 | pIC50 (second compound 0.0949 µM): 7.08 | pIC50 (second compound 0.3 µM): 7.11 | viability, T/C [1]: 71.3% | viability, T/C [2]: 34.3% | viability, T/C [3]: 21.8% | viability, T/C [4]: 21.3% | viability, T/C [5]: 22.5% | viability, T/C [6]: 3.27% | viability, T/C [7]: 73.1% | viability, T/C [8]: 38.1% | viability, T/C [9]: 25.3% | viability, T/C [10]: 20.1% | viability, T/C [11]: 21.5% | viability, T/C [12]: 2.54% | viability, T/C [13]: 60.6% | viability, T/C [14]: 41.4% | viability, T/C [15]: 22% | viability, T/C [16]: 23% | viability, T/C [17]: 19.6% | viability, T/C [18]: 2.74% | viability, T/C [19]: 70.8% | viability, T/C [20]: 48.1% | viability, T/C [21]: 23.6% | viability, T/C [22]: 22.9% | viability, T/C [23]: 19.2% | viability, T/C [24]: 2.55% | viability, T/C [25]: 83.8% | viability, T/C [26]: 42% | viability, T/C [27]: 23.3% | viability, T/C [28]: 23.9% | viability, T/C [29]: 21.4% | viability, T/C [30]: 2.75% | viability, T/C [31]: 78.2% | viability, T/C [32]: 40.7% | viability, T/C [33]: 22.5% | viability, T/C [34]: 22.3% | viability, T/C [35]: 20.5% | viability, T/C [36]: 2.63%

CCN1CCN(Cc2ccc(Nc3ncc(F)c(-c4cc(F)c5nc(C)n(C(C)C)c5c4)n3)nc2)CC1 + CCn1c(-c2cc(N3CCN(C)CC3)cnc2C(C)OC)c2c3cc(ccc31)-c1csc(n1)CC(NC(=O)C1CC1C)C(=O)N1CCCC(N1)C(=O)OCC(C)(C)C2
pIC50 (second compound 0.000949 µM): 7.71 | pIC50 (second compound 0.003 µM): 7.79 | pIC50 (second compound 0.00949 µM): 7.77 | pIC50 (second compound 0.03 µM): 7.66 | pIC50 (second compound 0.0949 µM): 7.54 | pIC50 (second compound 0.3 µM): 7.69 | viability, T/C (second compound 0.000949 µM, first compound 0.00316 µM): 96.6% | viability, T/C (second compound 0.000949 µM, first compound 0.01 µM): 68.5% | viability, T/C [1]: 33.4% | viability, T/C [2]: 28.7% | viability, T/C [3]: 20.4% | viability, T/C [4]: 15.3% | viability, T/C (second compound 0.003 µM, first compound 0.00316 µM): 93.4% | viability, T/C (second compound 0.003 µM, first compound 0.01 µM): 59.7% | viability, T/C [7]: 38.5% | viability, T/C [8]: 19.3% | viability, T/C [9]: 20.3% | viability, T/C [10]: 14% | viability, T/C (second compound 0.00949 µM, first compound 0.00316 µM): 103% | viability, T/C (second compound 0.00949 µM, first compound 0.01 µM): 63.4% | viability, T/C [13]: 35.3% | viability, T/C [14]: 18.5% | viability, T/C [15]: 20% | viability, T/C [16]: 12.7% | viability, T/C (second compound 0.03 µM, first compound 0.00316 µM): 104% | viability, T/C (second compound 0.03 µM, first compound 0.01 µM): 85.5% | viability, T/C [19]: 33% | viability, T/C [20]: 19.5% | viability, T/C [21]: 23.5% | viability, T/C [22]: 15% | viability, T/C (second compound 0.0949 µM, first compound 0.00316 µM): 92.7% | viability, T/C (second compound 0.0949 µM, first compound 0.01 µM): 54.4% | viability, T/C [25]: 58.4% | viability, T/C [26]: 33.1% | viability, T/C [27]: 23.1% | viability, T/C [28]: 12.8% | viability, T/C (second compound 0.3 µM, first compound 0.00316 µM): 88.1% | viability, T/C (second compound 0.3 µM, first compound 0.01 µM): 60.1% | viability, T/C [31]: 42.8% | viability, T/C [32]: 32.3% | viability, T/C [33]: 22% | viability, T/C [34]: 14.6%

C[C@@H](NC(=O)c1ncnc(N)c1Cl)c1ncc(C(=O)Nc2cc(C(F)(F)F)c(Cl)cn2)s1 + CCn1c(-c2cc(N3CCN(C)CC3)cnc2C(C)OC)c2c3cc(ccc31)-c1csc(n1)CC(NC(=O)C1CC1C)C(=O)N1CCCC(N1)C(=O)OCC(C)(C)C2
pIC50 (second compound 0.000949 µM): 5.87 | pIC50 (second compound 0.003 µM): 5.95 | pIC50 (second compound 0.00949 µM): 6.01 | pIC50 (second compound 0.03 µM): 6.09 | pIC50 (second compound 0.0949 µM): 6.16 | pIC50 (second compound 0.3 µM): 6.04 | viability, T/C [1]: 105% | viability, T/C [2]: 85.8% | viability, T/C [3]: 77.9% | viability, T/C [4]: 58.2% | viability, T/C [5]: 30.6% | viability, T/C [6]: 17.3% | viability, T/C [7]: 102% | viability, T/C [8]: 93.6% | viability, T/C [9]: 72.5% | viability, T/C [10]: 54.5% | viability, T/C [11]: 29.7% | viability, T/C [12]: 18.7% | viability, T/C [13]: 106% | viability, T/C [14]: 90.4% | viability, T/C [15]: 81.1% | viability, T/C [16]: 49% | viability, T/C [17]: 23.2% | viability, T/C [18]: 12.5% | viability, T/C [19]: 103% | viability, T/C [20]: 88% | viability, T/C [21]: 87.4% | viability, T/C [22]: 40% | viability, T/C [23]: 23.1% | viability, T/C [24]: 11.4% | viability, T/C [25]: 102% | viability, T/C [26]: 89.6% | viability, T/C [27]: 79.3% | viability, T/C [28]: 35% | viability, T/C [29]: 20.2% | viability, T/C [30]: 11.8% | viability, T/C [31]: 104% | viability, T/C [32]: 93.2% | viability, T/C [33]: 69.9% | viability, T/C [34]: 51.8% | viability, T/C [35]: 23.2% | viability, T/C [36]: 12.5%
